Data on 1 compound can be found in article PMC6328046 (Gastroenterology, 2018).

This assay concerns the target HDAC2 (Homo sapiens, UniProt Q92769). The assay is described as follows: surface plasmon resonance with recombinant HDAC2. The format is binding. (In SPR one partner is held on a chip, and binding of the other changes the refractive index at the surface.)

Sequence of HDAC2 (Q92769 whole entry): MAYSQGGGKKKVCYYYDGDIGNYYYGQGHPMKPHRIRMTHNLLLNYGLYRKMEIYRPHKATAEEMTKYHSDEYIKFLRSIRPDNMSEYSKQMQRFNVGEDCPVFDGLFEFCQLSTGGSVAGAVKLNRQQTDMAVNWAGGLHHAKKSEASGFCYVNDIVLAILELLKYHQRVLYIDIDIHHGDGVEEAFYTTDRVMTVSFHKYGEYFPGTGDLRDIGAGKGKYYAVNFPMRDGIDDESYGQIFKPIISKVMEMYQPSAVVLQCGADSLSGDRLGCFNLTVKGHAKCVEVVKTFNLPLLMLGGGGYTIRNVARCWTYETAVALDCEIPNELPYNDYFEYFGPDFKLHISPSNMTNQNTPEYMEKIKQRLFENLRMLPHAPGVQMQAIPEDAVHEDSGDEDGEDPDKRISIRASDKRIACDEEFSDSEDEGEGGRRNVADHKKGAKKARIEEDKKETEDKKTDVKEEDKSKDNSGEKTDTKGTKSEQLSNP

As a reminder, the Kd is the equilibrium constant for the complex coming apart. Take `COc1ccc(Nc2nnc(-c3ccc(C(=O)NO)cc3)o2)cc1` [metavert]: the Kd is 12.8 µM.
